Results from PubChem BioAssay AID1996.
In brackets after ≈: the same amount, converted by molar mass. Residues, ends and D or L forms follow the SMILES beside them. *: point of attachment. OBn = c1ccc(CO*)cc1

Settings: buffer; pH 7.4; 200.0 µM

| Structure (SMILES) | solubility kinetic [µg/mL] |
| --- | --- |
| O=CN1c2ccccc2CSc2ccccc21 | 32.9 (≈ 136 µM) |
| O=Cc1c(SCCO)nc2ccccn2c1=O | 17.6 (≈ 70.3 µM) |
| Cc1ccc2c(N)c(C(=O)c3ccccc3)sc2n1 | 3.1 (≈ 11.6 µM) |
| C=CCn1c(SCC(=O)NC2(C)CCS(=O)(=O)C2)nc2ccccc21 (stereo not given) | > 56.9 |
| COC(=O)C1=C(N)OC2=C(C(=O)CC(C)(C)C2)C1c1ccccc1OC (stereo not given) | > 53.6 |
| Cc1ccc2nc(-c3ccc(Br)cc3)cn2c1 | < 0.3 |
| Clc1nccc(N2CCN(c3ccccc3Cl)CC2)n1 | 13.3 (≈ 43 µM) |
| CCCC(=O)Nc1cc(S(=O)(=O)N2CCOCC2)ccc1N1CCCCC1 | > 59.3 |
| CC(C)N(C(=O)COC(=O)c1ccc(Cl)nc1)C(C)C | 30.7 (≈ 103 µM) |
| Nc1ccc(C(=O)O)cc1[N+](=O)[O-] | > 27.3 |
| CCOCCCNC(=O)CN1CCN(Cc2ccc(Cl)cc2)C1=O | 46.6 (≈ 132 µM) |
| CC(=O)N1C[C@H](O)C[C@H]1C(=O)O | > 26 |
| COc1ccccc1CC(=O)Nc1cc(C)ccn1 | > 38.4 |
| Cc1cccc2sc(NC(=O)Cn3c(C)csc3=O)nc12 | 5.1 (≈ 16 µM) |
| CC(=O)Nc1ccc(SCC(=O)Nc2ccc3c(c2)OCCO3)cc1 | > 53.8 |
| CC(C)c1ccc(NC(=S)NCc2ccc3c(c2)OCO3)cc1 | 4.9 (≈ 14.9 µM) |
| c1cnc(-c2noc(CN3CCN(C4CCCC4)CC3)n2)cn1 | > 47.2 |
| CCCCOc1ccc(C(=O)OCC(=O)N2CCCCCC2)cc1 | 8.4 (≈ 25.2 µM) |
| CCS(=O)(=O)c1ccc(O)c(NC(=O)c2cc(-c3ccccn3)nc3ccccc23)c1 | > 65 |
| CCCc1ccc(OCCNC(=O)c2ccco2)cc1 | > 41 |
| COc1cc(=O)[nH]c(SC(C)C(=O)Nc2ccc3ccccc3c2)n1 (stereo not given) | 0.8 (≈ 2.25 µM) |
| COC(=O)c1c(C)nsc1NC(=O)Oc1ccccc1 | 2.7 (≈ 9.24 µM) |
| Cc1cc([N+](=O)[O-])ccc1NC(=O)CCC(=O)N1CCCCC1 | > 47.9 |
| COc1ccc(S(=O)(=O)N2c3ccc(F)cc3CCC2C)cc1 (stereo not given) | 3.2 (≈ 9.54 µM) |

| Structure (SMILES) | solubility kinetic [µg/mL] |
| --- | --- |
| Cc1cc(C)cc(C(=O)NCC(=O)OCC(=O)NC2CC2)c1 | > 45.7 |
| CCC(=O)c1ccc(OCC(O)CNC2CCCC2)cc1 (stereo not given) | 35.6 (≈ 122 µM) |
| Cc1ccccc1NC(=O)Cc1nc(COC(=O)c2ccc(NC(N)=O)cc2)cs1 | 17.6 (≈ 41.5 µM) |
| CCOC(=O)c1ccc(-n2c(CC)nc3ccccc3c2=O)cc1 | 1.4 (≈ 4.34 µM) |
| C=CCn1c(C)nnc1SCC(=O)NC1CCCCC1 | > 44.2 |
| Cc1cccc(-n2c(O)c(C=NCCN3CCNCC3)c(=O)[nH]c2=S)c1 | 51.2 (≈ 137 µM) |
| Cc1cccc(C(=O)OCC(=O)N2CCc3ccccc3C2)c1O | 6.8 (≈ 20.9 µM) |
| COc1ccc(S(N)(=O)=O)cc1C(=O)OCC(=O)Nc1sccc1C#N | 15.1 (≈ 38.2 µM) |
| CN1CCCC(OC(=O)c2cccc(Br)c2)C1.Cl (stereo not given) | > 50.2 |
| O=C(Nc1ccc(F)c(Cl)c1)c1cncs1 | > 38.5 |
| N/C(=N\OC(=O)Nc1ccccc1)c1ncc([N+](=O)[O-])s1 | 3.8 (≈ 12.4 µM) |
| Cc1cc(/C=C(\C#N)C(=O)O)c(C)n1CCC(C)C | > 39.1 |
| CC1CCCN(S(=O)(=O)c2csc(C(N)=O)c2)C1 (stereo not given) | > 43.3 |
| C/C(=C\c1cccs1)C(=O)c1c(C)cc(C)[nH]c1=O | > 41 |
| Cc1ccc(CNCc2ccc3c(c2)OCO3)cc1 | 32.5 (≈ 127 µM) |
| S=C(NCCc1ccccc1)Nc1c(Cl)cccc1Cl | 44.3 (≈ 136 µM) |
| O=C(Nc1ccc(F)c(Cl)c1)Nc1csc2ccccc12 | 1 (≈ 3.12 µM) |
| O=C(NCCc1ccc(Cl)cc1Cl)c1ccc2nc[nH]c2c1 | 33.2 (≈ 99.3 µM) |
| CCOC(=O)C1CCCN(S(=O)(=O)Cc2ccc(Cl)cc2)C1 (stereo not given) | 51 (≈ 147 µM) |
| Cc1cc(=O)[nH]c(N2CCN(C(=O)c3ccco3)CC2)n1 | > 43.2 |
| Cc1cccc(NC(=O)Cn2nc(-c3ccco3)ccc2=O)c1C | > 48.5 |
| COc1ccc(NC(=O)COC(=O)C23CC4CC(CC(O)(C4)C2)C3)cc1Cl | > 59.1 |
| CC(=O)C1=C(O)C(=O)N(c2ccc(O)cc2)C1c1cccc(F)c1 (stereo not given) | > 49.1 |
| Oc1c(I)cc(Cl)c2cccnc12 | 0.8 (≈ 2.62 µM) |

| Structure (SMILES) | solubility kinetic [µg/mL] |
| --- | --- |
| Cc1ccc(-c2nc(CN3CCN(c4cnccn4)CC3)c(C)o2)o1 | 38.3 (≈ 113 µM) |
| CCOc1ncccc1C(=O)NCc1ccccc1F | > 41.1 |
| Cl.O=C1C2CCCC1C(N1CCCCC1)CC2 (stereo not given) | > 38.7 |
| N#Cc1ccccc1COC(=O)c1cccnc1N | 10.5 (≈ 41.5 µM) |
| Cc1ccc(C(=O)Nc2nc(-c3ccccn3)cs2)o1 | 37.1 (≈ 130 µM) |
| Cc1ccccc1C(=O)N1CCC(C(=O)NC2CCCCCC2)CC1 | 48.6 (≈ 142 µM) |
| CCN(CC(=O)NCc1cccs1)C(=O)c1cccc(S(=O)(=O)N(C)C)c1 | > 61.4 |
| Cc1ccc(C(=O)NCC(=O)N2CCCCCCC2)cc1 | 42.3 (≈ 147 µM) |
| CN(C)c1ccc(C2Nc3cccc4cccc(c34)N2)cc1 | 6.1 (≈ 21.1 µM) |
| COc1ccc(CNC(=O)c2coc(=O)c3ccccc23)cc1 | 30.8 (≈ 99.6 µM) |
| Cc1ccc(NC(=O)c2cc3cc(OC(F)(F)F)ccc3[nH]2)cc1 | < 0.4 |
| Cc1cccc(Cl)c1OCCN1CCCC1.O=C(O)C(=O)O | > 49.5 |
| Cc1ccc(S(=O)(=O)N2CCCC2c2cccnc2)cc1 (stereo not given) | > 45.4 |
| CN1C(=O)CCC(CCC(=O)O)(c2ccccc2O)C1=O (stereo not given) | > 43.7 |
| COc1c(S(=O)(=O)Nc2cccnc2)ccc(Cl)c1Cl | 30.8 (≈ 92.4 µM) |
| COc1ccc(OC)c(NC(=O)CC2Oc3ccccc3NC2=O)c1 (stereo not given) | 6.4 (≈ 18.7 µM) |
| CCOC(=O)/C(=C/Nc1ccc(F)c(F)c1)[N+](=O)[O-] | > 40.8 |
| CC(C)COc1ncnc2c1sc1nc3c(cc12)COC(C)(C)C3 | 3.7 (≈ 10.8 µM) |
| CCN1CCN(CC(=O)N2c3ccccc3Sc3ccccc32)CC1 | > 53 |
| O=C(COc1ccc(C(=O)O)cc1)Nc1cccc(C(F)(F)F)c1 | > 50.9 |
| COc1cccc2[nH]c(C(=O)NCC3CCCO3)cc12 (stereo not given) | > 41.1 |
| Cc1ccc(CN(C)C(=O)c2c(C)nn(-c3ccccc3)c2C)cc1 | > 50 |
| Cc1ccc(SCC(=O)NC2CC2)cc1 | > 33.2 |
| Cc1nc2ccccc2c(=O)n1-c1ccc(F)cc1F | 36.9 (≈ 136 µM) |

| Structure (SMILES) | solubility kinetic [µg/mL] |
| --- | --- |
| Cc1cccc(C)c1NC(=S)NCc1ccncc1 | > 40.7 |
| C/C(=N\NC(=O)c1cc(C)nc2ccccc12)c1ccco1 | > 44 |
| CNC(=S)Nc1ccc(C)c(NC(=S)NC)c1 | > 40.3 |
| Cc1ccccc1NC(=O)CON=C(N)c1ccccc1 | > 42.5 |
| C/C(=N\O)c1ccc(Cl)c(Cl)c1 | 11.9 (≈ 58.3 µM) |
| O=C(Nc1cccc(Cl)c1)Nc1csc([N+](=O)[O-])c1 | 0.5 (≈ 1.68 µM) |
| COc1ccc(C2C(C(C)=O)=C(C)Nc3ncnn32)c(OC)c1OC (stereo not given) | > 51.7 |
| COc1ccc(NC(=O)CCN2CCOCC2)c(OC)c1 | > 44.2 |
| COC(=O)c1ccc(C2SCC(=O)N2Cc2ccccc2)cc1 (stereo not given) | 37.3 (≈ 114 µM) |
| O=C(Nc1ccc(N2CCOCC2)cc1N1CCOCC1)c1ccccc1 | > 55.1 |
| Fc1ccc(CCNC(=S)Nc2ccc(F)c(Cl)c2)cc1 | 23.9 (≈ 73.1 µM) |
| COc1ccc(C(O)c2ncc(C(F)(F)F)cc2Cl)cc1 (stereo not given) | > 47.7 |
| CSc1cccc(NC(=O)CNC(=O)C2CCCCC2)c1 | 22.7 (≈ 74.1 µM) |
| COc1cc(C(NC=O)C(=O)Nc2c(C)cccc2C)ccc1O (stereo not given) | 45.4 (≈ 138 µM) |
| N[C@@H](Cc1ccc(O)cc1)C(=O)Nc1ccc2ccccc2c1 | > 46 |
| CCc1cc(=O)oc2cc(OCC(=O)N3CC[C@@]4(O)CCCC[C@H]4C3)ccc12 | > 57.8 |
| COCCNC(=O)Cn1nc(-c2ccc(C)cc2)ccc1=O | > 45.2 |
| CC(=O)Nc1ccc2nc(NC(=O)c3cccs3)sc2c1 | 3.6 (≈ 11.3 µM) |
| Cc1cccc(C(=O)N/N=C/c2ccoc2)c1 | > 34.2 |
| O=C(O)C(c1ccccc1)N1C(=O)c2ccccc2C1=O (stereo not given) | 40.7 (≈ 145 µM) |
| CC(=O)N1CCN(C(=O)c2ccc(Oc3ccccc3)cc2)CC1 | 46.6 (≈ 144 µM) |
| O=C1NC(=Nc2cccnc2)S/C1=C/c1ccc(F)cc1 | 0.7 (≈ 2.34 µM) |
| CCCCNC(=O)COC(=O)c1ccc(C)c(NC(=O)c2ccco2)c1 | 17.8 (≈ 49.7 µM) |
| Cc1ccc2c(c1)N(CC(=O)N1CCCCC1C)C(=O)CO2 (stereo not given) | > 45.4 |

| Structure (SMILES) | solubility kinetic [µg/mL] |
| --- | --- |
| CCCCNC(=O)NC(C(N)=O)P(=O)(OCC)OCC (stereo not given) | > 46.4 |
| CCCCCn1cc(C(=O)C(=O)N2CCOCC2)c2ccccc21 | 46.8 (≈ 143 µM) |
| COCCN(C/C=C/c1ccccc1)C/C=C/c1ccccc1 | 10.1 (≈ 32.9 µM) |
| CCN(CC)C(=S)SC1CCCCN(C(=O)c2ccc(F)cc2)C1=O (stereo not given) | 5.2 (≈ 13.6 µM) |
| O=C(Nc1nonc1-c1ccc(Cl)cc1)c1ccccc1 | 0.7 (≈ 2.34 µM) |
| CC(=O)NCC(=O)N[C@@H](CC(=O)OCc1ccccc1)C(=O)OCc1ccccc1 (Ac-Gly-Asp(OBn)-OBn) | > 61.9 |
| CC(=O)c1c(C)n(-c2ccc(C)cc2C)c2ccc(O)cc12 | < 0.6 |
| CC(C)N(C(C)C)S(=O)(=O)c1ccc(Cl)nc1 | 32.4 (≈ 117 µM) |
| O=C(COc1ccccc1[N+](=O)[O-])Nc1cccc(S(=O)(=O)N2CCCC2)c1 | 3.5 (≈ 8.63 µM) |
| Cc1sc2ncnc(SCC(=O)NC3CCCC3)c2c1C | 5.2 (≈ 16.2 µM) |
| CN(C(=O)c1ccc(Oc2ccc([N+](=O)[O-])cc2)cc1)C1CCCCC1 | 1 (≈ 2.82 µM) |
| COc1cc(N2CCCC2)ccc1C=O | 29 (≈ 141 µM) |
| Cc1cccc(C)c1NC(=O)CNC(=O)CNC(=O)c1ccc2c(c1)OCO2 | > 57.5 |
| COc1cc(NS(=O)(=O)c2cc(C(=O)NCCc3ccccn3)ccc2OC)cc(OC)c1 | 66.4 (≈ 141 µM) |
| O=C(NCc1ccccc1)c1cc[n+](Cc2ccccc2)cc1.[Cl-] | 49.7 |
| O=C(NCCCCCCNC(=O)c1ccncc1)c1ccncc1 | > 49 |
| COc1ccc(-c2nc3cc([N+](=O)[O-])ccc3o2)cc1OC | < 0.3 |
| S=C(Cc1ccc(-c2ccccc2)cc1)N1CCOCC1 | 0.7 (≈ 2.35 µM) |
| O=[N+]([O-])c1cnc2ccccn12 | 22.1 (≈ 135 µM) |
| COc1cc(N2C(=O)CC(=O)NC2=O)cc(OC)c1OC | 40.7 (≈ 138 µM) |
| N#CCc1ccc(OC(=O)c2cccnc2Cl)cc1 | > 40.9 |
| Cc1ccc(S(=O)(=O)NCC2CCCO2)cc1 (stereo not given) | > 38.3 |
| N#Cc1cccc(NC(=O)CC2CCCC2)c1 | 33.1 (≈ 145 µM) |
| COc1ccc2nc(C)cc(NCc3ccc(F)cc3)c2c1 | > 44.5 |
